Patent publication US9353090B2, “Heterocyclic carboxylic acids as activators of soluble guanylate cyclase” (Boehringer Ingelheim International GmbH, priority 2014, dated 2016)
Values after ≈ are worked out from the molar mass of the structure shown.

Tests used:
[1] = biological target: human soluble guanylate cyclase alpha 1 and beta 1 subunits (sGC) (Homo sapiens (Human), UniProt Q02108+Q02153); assay: sGC cellular activator assay (cGMP, HTRF), in the presence and absence of 50% human serum; assay type: cell-based; settings: CHO cells stably expressing human sGC alpha 1/beta 1, preincubated with 40 microM ODQ; cGMP by HTRF; Table 2 does not state whether with or without 50% human serum
Sequence of human soluble guanylate cyclase alpha 1 and beta 1 subunits (sGC) (Q02108 whole entry partner): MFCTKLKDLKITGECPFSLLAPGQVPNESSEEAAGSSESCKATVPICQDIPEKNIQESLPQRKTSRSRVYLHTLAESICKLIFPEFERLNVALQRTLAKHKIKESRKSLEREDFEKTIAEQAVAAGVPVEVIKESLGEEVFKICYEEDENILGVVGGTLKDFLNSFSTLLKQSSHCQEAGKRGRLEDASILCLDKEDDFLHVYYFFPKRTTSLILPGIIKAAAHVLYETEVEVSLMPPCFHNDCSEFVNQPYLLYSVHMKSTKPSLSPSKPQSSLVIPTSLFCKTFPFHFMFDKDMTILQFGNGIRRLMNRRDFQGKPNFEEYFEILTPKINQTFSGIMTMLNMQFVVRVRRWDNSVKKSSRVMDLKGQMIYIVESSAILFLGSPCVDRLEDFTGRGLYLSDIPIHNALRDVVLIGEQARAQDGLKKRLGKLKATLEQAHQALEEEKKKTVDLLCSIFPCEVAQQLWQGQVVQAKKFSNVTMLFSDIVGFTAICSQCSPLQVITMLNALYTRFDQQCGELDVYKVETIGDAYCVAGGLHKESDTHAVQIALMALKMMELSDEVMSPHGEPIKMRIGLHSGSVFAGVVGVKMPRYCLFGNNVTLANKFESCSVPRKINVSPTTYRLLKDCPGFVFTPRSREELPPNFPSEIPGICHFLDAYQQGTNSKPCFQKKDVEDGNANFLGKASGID
Sequence of human soluble guanylate cyclase alpha 1 and beta 1 subunits (sGC) (Q02153 whole entry): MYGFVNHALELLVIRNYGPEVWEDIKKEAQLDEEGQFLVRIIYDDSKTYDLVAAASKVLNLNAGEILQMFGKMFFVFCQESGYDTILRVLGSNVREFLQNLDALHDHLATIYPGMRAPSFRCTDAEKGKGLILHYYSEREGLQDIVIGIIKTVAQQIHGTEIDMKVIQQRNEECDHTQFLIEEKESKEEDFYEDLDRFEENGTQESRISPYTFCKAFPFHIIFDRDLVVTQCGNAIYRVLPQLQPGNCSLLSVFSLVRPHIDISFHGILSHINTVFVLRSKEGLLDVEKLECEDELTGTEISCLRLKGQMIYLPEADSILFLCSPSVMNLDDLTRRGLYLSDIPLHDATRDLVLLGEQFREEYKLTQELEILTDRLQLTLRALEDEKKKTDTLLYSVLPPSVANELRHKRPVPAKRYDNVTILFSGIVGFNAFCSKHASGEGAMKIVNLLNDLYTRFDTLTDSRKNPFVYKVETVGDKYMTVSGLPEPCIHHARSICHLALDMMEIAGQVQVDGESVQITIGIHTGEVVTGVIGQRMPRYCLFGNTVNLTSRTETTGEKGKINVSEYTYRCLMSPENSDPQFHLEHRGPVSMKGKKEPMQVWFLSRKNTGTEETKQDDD
Outline: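 Heme-oxidized conditions: ODQ (40 microM, 1 h) pretreatment of CHO cells stably expressing human α1/β1 sGC, in buffer containing 0.1% BSA and IBMX.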

[2] = Human liver microsome (HLM) metabolic stability assay; assay type: in vitro ADME; settings: human liver microsomes
Outline: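 Compound at 1 uM incubated with human liver microsomes at 37° C. for 60 min after NADPH addition. Aliquots quenched in cold acetonitrile at 0, 5, 15, 30 and 60 min and analysed by LC/MS/MS. t1/2 from ln(% remaining) vs time slope; CLint, CLh and % Qh derived from it (n=1).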

physchem = settings: kinetic from dmso stock
[3] = pH 2.2, aqueous buffer, Solubility (pH 2.2)
[4] = pH 4.5, aqueous buffer, Solubility (pH 4.5)
[5] = pH 6.8, aqueous buffer, Solubility (pH 6.8)

Row | SMILES | EC50 [1] | Metabolic stability (Qh %), % hepatic blood flow [2] | solubility at 24 h (physchem; [3]) | solubility at 24 h (physchem; [4]) | solubility at 24 h (physchem; [5])
1 | COC[C@H]1N(c2cccc(-c3cccc(C)c3OCc3ccc4c(c3F)CCN(C3CCOC3)CC4)n2)C[C@@H]2C[C@@]21C(=O)O (stereo partly drawn) [Compound 268] | 4 nM | 40% | 119 µg/mL (≈ 198 µM) | 88.6 µg/mL (≈ 147 µM) | 57.8 µg/mL (≈ 96.1 µM)
2 | COc1cc(COc2c(C)cccc2-c2csc(N3CC[C@@H](C(=O)O)[C@@H](OC)C3)n2)c(F)c2c1CN(C1CCOCC1)CC2 [Compound 252] | 2 nM | <24% | 133 µg/mL (≈ 212 µM) | 81.7 µg/mL (≈ 131 µM) | 72.9 µg/mL (≈ 116 µM)
3 | Cc1cc(COc2c(C)cccc2-c2cccc(N3C[C@@H]4C[C@]4(C(=O)O)C3)n2)cc2c1CN(C1COC1)CC2 [Compound 23] | 6 nM | <24% | 100 µg/mL (≈ 190 µM) | 88 µg/mL (≈ 167 µM) | 69 µg/mL (≈ 131 µM)
4 | CO[C@H]1CN(c2nc(-c3cccc(Cl)c3OCc3ccc4c(c3)[C@@H](C)CN(C3CCOCC3)CC4)cs2)CC[C@H]1C(=O)O [Compound 319] | 1 nM | 25% | 109 µg/mL (≈ 173 µM) | 60.2 µg/mL (≈ 96.1 µM) | 55.4 µg/mL (≈ 88.5 µM)
5 | Cc1ccc(OCc2cc(C)c3c(c2C)CCN(C2CCOCC2)C3)c(-c2cccc(N3C[C@@H]4C[C@]4(C(=O)O)C3)n2)c1 [Compound 39] | 50 nM | <24% | 100 µg/mL (≈ 176 µM) | 91 µg/mL (≈ 160 µM) | 45 µg/mL (≈ 79.3 µM)
6 | CO[C@@H]1CN(c2cccc(-c3cccc(Cl)c3OCc3cc(C)c4c(c3)CCN(C3CCOCC3)C4)n2)CC[C@@H]1C(=O)O [Compound 255] | 7 nM | 25% | 170 µg/mL (≈ 280 µM) | 69.5 µg/mL (≈ 115 µM) | 37.7 µg/mL (≈ 62.2 µM)
7 | COC[C@H]1N(c2cccc(-c3cccc(C(F)(F)F)c3OCc3cc(C)c4c(c3)CCN(C3CCOCC3)C4)n2)C[C@@H]2C[C@@]21C(=O)O [Compound 220] | 9 nM | 34% | 167 µg/mL (≈ 256 µM) | 136 µg/mL (≈ 209 µM) | 133 µg/mL (≈ 203 µM)
8 | COC[C@H]1N(c2cccc(-c3cccc(C)c3OCc3ccc4c(c3F)CCN(C3COC3)CC4)n2)C[C@@H]2C[C@@]21C(=O)O [Compound 263] | 7 nM | <24% | 122 µg/mL (≈ 207 µM) | 82.8 µg/mL (≈ 141 µM) | 54.4 µg/mL (≈ 92.6 µM)
9 | CCO[C@H]1CN(c2cccc(-c3cccc(Cl)c3OCc3cc4c(c(OC)c3)CN(C3CCOCC3)CC4)n2)CC[C@H]1C(=O)O [Compound 257] | 3 nM | 85% | 164 µg/mL (≈ 258 µM) | 88.2 µg/mL (≈ 139 µM) | 59 µg/mL (≈ 92.7 µM)
10 | CO[C@@H]1CN(c2cccc(-c3cccc(C)c3OCc3ccc4c(c3C)CCN(C3COC3)C4)n2)CC[C@@H]1C(=O)O [Compound 69] | 16 nM | <24% | 130 µg/mL (≈ 233 µM) | 110 µg/mL (≈ 197 µM) | 89 µg/mL (≈ 160 µM)
11 | Cc1ccc(OCc2ccc3c(c2C)CCN(C2CCCOC2)CC3)c(-c2csc(N3CC[C@@]4(C(=O)O)C[C@H]4C3)n2)c1 (stereo partly drawn) [Compound 134] | 11 nM | 53% | 110 µg/mL (≈ 187 µM) | 8.5 µg/mL (≈ 14.5 µM) | 0.95 µg/mL (≈ 1.62 µM)
12 | Cc1ccc(OCc2ccc3c(c2C)CCN(C2CCOCC2)CC3)c(-c2cccc(N3C[C@@H]4C[C@]4(C(=O)O)C3)n2)c1 [Compound 41] | 16 nM | <24% | 100 µg/mL (≈ 176 µM) | 84 µg/mL (≈ 148 µM) | 45 µg/mL (≈ 79.3 µM)
13 | COC[C@@H]1N(c2cccc(-c3cccc(C)c3OCc3cc(C)c4c(c3)CCN(C3CCOCC3)C4)n2)C[C@@H]2C[C@@]21C(=O)O [Compound 62] | 465 nM | <24% | 130 µg/mL (≈ 217 µM) | 130 µg/mL (≈ 217 µM) | 130 µg/mL (≈ 217 µM)
14 | Cc1ccc(OCc2ccc3c(c2C)CCN(C2COC2)CC3)c(-c2cccc(N3C[C@@H]4C[C@]4(C(=O)O)C3)n2)c1 [Compound 42] | 50 nM | 76% | 96 µg/mL (≈ 178 µM) | 87 µg/mL (≈ 161 µM) | 58 µg/mL (≈ 107 µM)
15 | Cc1ccc(OCc2ccc3c(c2C)CCN(CC2COCCO2)CC3)c(-c2csc(N3CC[C@@]4(C(=O)O)C[C@H]4C3)n2)c1 (stereo partly drawn) [Compound 132] | 22 nM | 46% | 110 µg/mL (≈ 182 µM) | 23 µg/mL (≈ 38.1 µM) | 3.1 µg/mL (≈ 5.13 µM)
